Data on 9 compounds can be found in patent publication US20230081426A1, “COMPOUNDS AND METHODS FOR KRAS MODULATION AND INDICATIONS THEREFOR” (Plexxikon Inc., priority 2020, published 2023).

The target in test [1] is T1, G12D-mutant human KRAS (amino acid residues 1-188) (Homo sapiens, UniProt P01116, G12D).
T1 construct: G12D or G12C-mutant human KRAS (amino acid residues 1-188) with FLAG tag; made in house; host or cells: E. coli
As to the kind of experiment: KRAS Binding Disruption Assay (AlphaScreen; biotinylated KRpep-2d analogue or RAF1-RBD), G12D. The settings on record: KRAS G12D; geometric mean; read-out: KRAS GMean IC50 (uM) MUTATION: G12D. Summed up:
(§1)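 Mutant KRAS (5-20 nM) incubated 1 h at 25° C with test compound and 5-20 nM biotinylated KRpep-2d analogue or RAF1-RBD in 20 mM HEPES pH 7.5, 100 mM NaCl, 5 mM MgCl2, 0.01% Tween-20, 0.01% BSA.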

In test [2] the target is T2, G12C-mutant human KRAS (amino acid residues 1-188) (Homo sapiens, UniProt P01116, G12C).
T2 construct: G12D or G12C-mutant human KRAS (amino acid residues 1-188) with FLAG tag; made in house; host or cells: E. coli
T2 sequence (P01116 1-188 isoform P01116-2 G12C): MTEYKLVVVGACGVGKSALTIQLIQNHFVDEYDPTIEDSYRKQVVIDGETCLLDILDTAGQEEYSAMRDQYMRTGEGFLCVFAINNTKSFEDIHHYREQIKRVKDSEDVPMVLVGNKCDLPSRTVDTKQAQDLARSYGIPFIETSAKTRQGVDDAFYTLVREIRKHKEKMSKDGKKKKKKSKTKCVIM
As to the kind of experiment: KRAS Binding Disruption Assay (AlphaScreen; biotinylated KRpep-2d analogue or RAF1-RBD), G12C. The conditions noted are these: geometric mean, read-out: KRAS GMean IC50 (uM) MUTATION: G12C. Summed up: as §1

T1 sequence (P01116 1-188 isoform P01116-2 G12D): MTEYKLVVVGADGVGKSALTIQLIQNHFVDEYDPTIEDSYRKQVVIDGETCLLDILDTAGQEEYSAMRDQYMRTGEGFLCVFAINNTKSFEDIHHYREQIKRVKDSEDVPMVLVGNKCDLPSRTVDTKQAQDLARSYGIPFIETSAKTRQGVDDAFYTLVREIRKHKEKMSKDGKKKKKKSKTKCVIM

As for `Oc1cc(-c2ccc3c(N4C[C@H]5CC[C@@H](C4)N5)nc(NCC4CCOCC4)nc3c2F)c2ccccc2c1` [P-0701, 4-(4-((1R,5S)-3,8-diazabicyclo[3.2.1]octan-3-yl)-8-fluoro-2-(((tetrahydro-2H-pyran-4-yl)methyl)amino)quinazolin-7-yl)naphthalen-2-ol], the IC50 is 0.0001 to 10 µM in test [1] and 100 to 1000 µM in test [2].
The matching figures for `CS(=O)(=O)NC1CN(c2nc(N3C[C@H]4CC[C@@H](C3)N4)c3ccc(-c4cc(O)cc5ccccc45)c(F)c3n2)C1` [P-0702, N-(1-(4-((1R,5S)-3,8-diazabicyclo[3.2.1]octan-3-yl)-8-fluoro-7-(3-hydroxynaphthalen-1-yl)quinazolin-2-yl)azetidin-3-yl)methanesulfonamide]: 0.0001 to 10 µM and 10 to 100 µM.
The matching figures for `Oc1cc(-c2ccc3c(N4C[C@H]5CC[C@@H](C4)N5)nc(N4CC(N5CCOCC5)C4)nc3c2F)c2ccccc2c1` [P-0703, 4-(4-((1R,5S)-3,8-diazabicyclo[3.2.1]octan-3-yl)-8-fluoro-2-(3-morpholinoazetidin-1-yl)quinazolin-7-yl)naphthalen-2-ol]: 0.0001 to 10 µM and 10 to 100 µM.
On to `CN(C)C1CCN(c2nc(N3C[C@H]4CC[C@@H](C3)N4)c3ccc(-c4cc(O)cc5ccccc45)c(F)c3n2)C1` (stereo partly drawn) [P-0704, 4-(4-((1R,5S)-3,8-diazabicyclo[3.2.1]octan-3-yl)-2-(3-(dimethylamino)pyrrolidin-1-yl)-8-fluoroquinazolin-7-yl)naphthalen-2-ol], for which the IC50 in test [1] is 0.0001 to 10 µM; in test [2], 10 to 100 µM.
Take `CN1CCC2CN(c3nc(N4C[C@H]5CC[C@@H](C4)N5)c4ccc(-c5cc(O)cc6ccccc56)c(F)c4n3)CC21` (stereo partly drawn) [P-0705, 4-(4-((1R,5S)-3,8-diazabicyclo[3.2.1]octan-3-yl)-8-fluoro-2-(1-methylhexahydropyrrolo[3,4-b]pyrrol-5(1H)-yl)quinazolin-7-yl)naphthalen-2-ol]: the IC50 in test [1] lay in the range of 0.0001 to 10 µM; in test [2] it was 10 to 100 µM.
The matching figures for `Oc1cc(-c2ccc3c(N4C[C@H]5CC[C@@H](C4)N5)nc(N4CC(O)(C(F)(F)F)C4)nc3c2F)c2ccccc2c1` [P-0706, 1-(4-((1R,5S)-3,8-diazabicyclo[3.2.1]octan-3-yl)-8-fluoro-7-(3-hydroxynaphthalen-1-yl)quinazolin-2-yl)-3-(trifluoromethyl)azetidin-3-ol]: 0.0001 to 10 µM and 100 to 1000 µM.
As for `CCc1c(F)ccc2[nH]cc(-c3ccc4c(N5C[C@H]6CC[C@@H](C5)N6)nc(OCC56CCCN5CCC6)nc4c3F)c12` [P-0709, 4-((1R,5S)-3,8-diazabicyclo[3.2.1]octan-3-yl)-7-(4-ethyl-5-fluoro-1H-indol-3-yl)-8-fluoro-2-((tetrahydro-1H-pyrrolizin-7a(5H)-yl)methoxy)quinazoline], the IC50 in test [1] and in test [2] was 0.0001 to 10 µM throughout.
Consider `CCc1c(F)ccc2[nH]cc(-c3c(F)cc4c(N5C[C@H]6CC[C@@H](C5)N6)nc(OCC56CCCN5CCC6)nc4c3F)c12` [P-0710, 4-((1R,5S)-3,8-diazabicyclo[3.2.1]octan-3-yl)-7-(4-ethyl-5-fluoro-1H-indol-3-yl)-6,8-difluoro-2-((tetrahydro-1H-pyrrolizin-7a(5H)-yl)methoxy)quinazoline], for which the IC50 in test [1] and in test [2] was 0.0001 to 10 µM each time.
In the case of `FC(F)(F)c1cccc2[nH]cc(-c3ccc4c(N5C[C@H]6CC[C@@H](C5)N6)nc(OCC56CCCN5CCC6)nc4c3)c12` [P-0711, 4-((1R,5S)-3,8-diazabicyclo[3.2.1]octan-3-yl)-2-((tetrahydro-1H-pyrrolizin-7a(5H)-yl)methoxy)-7-(4-(trifluoromethyl)-1H-indol-3-yl)quinazoline], the IC50 in test [1] and in test [2] was 0.0001 to 10 µM each time.
